{
  "source": "patent US20240183860A1",
  "about": "“Chimeric ABC Transporters and Screening Methods” (Genentech, Inc., priority 2021, published 2024)",
  "molecules": {"B1": {"name": "G1118 (peptide)", "peptide": "FWWLWDDVSWWFVC", "modifications": "not checked"}},
  "key": {"E. coli MsbA (EcMsbA)": {"molecular_target": "T1, E. coli MsbA (EcMsbA) (Escherichia coli, UniProt P60752)", "T1 construct": "FLAG (N); made in house; host or cells: E. coli (strain for the WT protein not restated)", "assay": "MsbA ATPase assay (Transcreener ADP2 FP)", "type": "biochemical", "experimental": "(§1) The ATPase activity of MsbA was measured using a Transcreener ADP2 FP Assay (BellBrook Labs). […] The final condition for the reaction was MsbA enzyme, 50 μM ATP in 50 mM Tris pH 7.5, 10 mM MgCl2, 1% glycerol, 0.1% bovine gamma globulin, 1 mM dithiothreitol (DTT), 0.007% Brij-35 and 0.5% dimethylsulfoxide (DMSO). The following concentrations were used for each MsbA variant: 5 nM of EcMsbA, EnMsbA, KpMsbA and 80 nM PaMsbA reconstituted in amphipol, 15 nM EcMsbA and EcMsbA-chim5 in LMNG detergent, 22 nM EcMsbA and 27 nM EcMsbA-12G7 complex in aDDM detergent. The enzyme reaction was incubated for 1 hour at room temperature, then quenched by adding the Transcreener Detection Buffer. The IC50 was determined by fitting the inhibition dose-response curve with a nonlinear four-parameter inhibition model (GraphPad Prism)."}, "[1]": {"molecular_target": "T2, EcMsbA-chim5 (MsbA-chimera5) (Escherichia coli, UniProt P60752, D53T/D54Y/D60K/DEL268-292/DEL57-57/F265A/G55I/I169L/INS266[…]/INS66P/K49D/K58D/L171A/L263V/L51V/L52I/M159V/M67L/P68V/S164D/S62H/T59E/V63D/Y163E)", "T2 construct": "FLAG (N); made in house; host or cells: E. coli Rosetta 2 (DE3), pET-52b vector", "assay": "biochemical", "type": "biochemical", "conditions": "ATPase; FIGS. 11D-E", "experimental": "as §1"}, "[2]": {"tested_on": "imp E. coli (lptD(imp4213)), E. coli MsbA", "assay": "Broth MIC assay", "type": "cell-based, Escherichia coli", "conditions": "Table 5 prints no unit; μM", "experimental": "Broth MICs were determined in cation-adjusted Mueller-Hinton broth with 0.002% Tween-80, as previously described (Ho et al., 2018)."}, "[3]": {"molecular_target": "T3, Pseudomonas aeruginosa MsbA (PaMsbA) (Pseudomonas aeruginosa, UniProt Q9HUG8)", "T3 construct": "FLAG; made in house; host or cells: not restated ('similarly expressed')", "T3 sequence (Q9HUG8 1-603)": "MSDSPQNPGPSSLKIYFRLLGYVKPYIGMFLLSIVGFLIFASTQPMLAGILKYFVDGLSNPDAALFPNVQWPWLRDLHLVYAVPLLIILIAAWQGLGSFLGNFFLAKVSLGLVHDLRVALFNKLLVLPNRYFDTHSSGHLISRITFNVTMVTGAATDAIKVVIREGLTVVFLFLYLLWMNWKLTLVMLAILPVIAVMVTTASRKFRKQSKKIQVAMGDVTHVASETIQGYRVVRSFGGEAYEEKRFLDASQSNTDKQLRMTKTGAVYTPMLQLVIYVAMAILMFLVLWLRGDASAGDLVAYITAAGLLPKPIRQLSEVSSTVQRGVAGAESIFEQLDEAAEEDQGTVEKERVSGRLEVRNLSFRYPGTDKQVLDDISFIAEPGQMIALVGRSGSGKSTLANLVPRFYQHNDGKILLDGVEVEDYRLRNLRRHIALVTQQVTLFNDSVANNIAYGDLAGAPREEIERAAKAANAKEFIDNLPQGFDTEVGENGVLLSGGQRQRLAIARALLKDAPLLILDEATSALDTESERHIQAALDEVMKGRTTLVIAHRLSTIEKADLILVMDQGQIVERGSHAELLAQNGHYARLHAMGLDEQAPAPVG", "assay": "MsbA ATPase assay, amphipol-reconstituted homologue", "type": "biochemical", "experimental": "as §1"}, "[4]": {"tested_on": "WT E. coli cells with an intact outer membrane (CFT073, UPEC WT)", "assay": "Cellular IC50 determination (BacTiter-Glo, 6 hours)", "type": "cell-based, Escherichia coli", "experimental": "The cellular IC50's of various bacterial strains (Table 2) were determined.\n200 nL aliquots of eight 2-fold dilutions of each compound were dispensed in duplicate into 384-well plates using an Echo Liquid Handler (Labcyte). Strains were grown in cation-adjusted Mueller Hinton Broth with 0.002% Tween overnight for 16 hours, washed with PBS, resuspended at OD600=1 in cation-adjusted Mueller Hinton Broth with 0.002% Tween and 10% glycerol, and frozen in […] aliquots. For each experiment, aliquots were thawed on ice and diluted 1:1000 into cation-adjusted Mueller Hinton Broth with 0.002% Tween. 10 μL cells/well were added to 384-well plates containing compound. Plates were incubated for 6 hours at 37° C., then 10 μL BacTiter-Glo reagent (Promega) was added to each well and luminescence was measured. IC50's were calculated using Genedata Screener software."}, "[5]": {"molecular_target": "T4, EcMsbA-chim5 (MsbA-chimera5) (Escherichia coli, UniProt P60752, D53T/D54Y/D60K/DEL268-292/DEL57-57/F265A/G55I/I169L/INS266IAYAGNRVIHEDMRSGALIAFIAAL/INS66P/K49D/K58D/L171A/L263V/L51V/L52I/M159V/M67L/P68V/S164D/S62H/T59E/V63D/Y163E)", "T4 construct": "FLAG (N); made in house; host or cells: E. coli Rosetta 2 (DE3), pET-52b vector", "assay": "biochemical", "type": "biochemical", "experimental": "as §1"}, "[6]": {"molecular_target": "T5, Pseudomonas aeruginosa MsbA (Pseudomonas aeruginosa), Q9HUG8", "T5 chain": "T3 sequence (Q9HUG8 1-603)", "assay": "cell-based or functional assay"}, "[7]": {"molecular_target": "Klebsiella pneumoniae MsbA (Klebsiella pneumoniae)", "assay": "cell-based or functional assay"}, "[8]": {"molecular_target": "Enterobacter cloacae MsbA (Enterobacter cloacae)", "assay": "cell-based or functional assay"}, "[9]": {"molecular_target": "T6, E. coli MsbA-chimera5 (chimera of Escherichia coli MsbA and Magnetospira strain-QH-2 MsbA), P60752", "T6 chain": "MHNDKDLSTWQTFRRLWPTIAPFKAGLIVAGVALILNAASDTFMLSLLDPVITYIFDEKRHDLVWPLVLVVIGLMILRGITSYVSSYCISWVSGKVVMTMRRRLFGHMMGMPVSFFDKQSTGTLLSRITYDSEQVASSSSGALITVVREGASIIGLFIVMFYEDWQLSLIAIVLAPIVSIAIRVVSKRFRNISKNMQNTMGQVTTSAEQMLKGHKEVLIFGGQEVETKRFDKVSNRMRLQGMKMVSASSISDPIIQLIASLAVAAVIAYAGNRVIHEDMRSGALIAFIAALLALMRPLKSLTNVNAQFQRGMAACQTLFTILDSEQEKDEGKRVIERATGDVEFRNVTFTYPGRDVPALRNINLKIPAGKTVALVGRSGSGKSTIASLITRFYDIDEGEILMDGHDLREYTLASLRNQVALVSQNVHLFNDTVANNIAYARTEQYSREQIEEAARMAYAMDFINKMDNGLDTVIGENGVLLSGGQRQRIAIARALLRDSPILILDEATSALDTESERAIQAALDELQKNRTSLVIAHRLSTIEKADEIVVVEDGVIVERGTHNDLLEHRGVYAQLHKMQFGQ", "assay": "cell-based or functional assay"}, "[10]": {"molecular_target": "T7, Escherichia coli MsbA (wild-type) (Escherichia coli), P60752", "T7 chain": "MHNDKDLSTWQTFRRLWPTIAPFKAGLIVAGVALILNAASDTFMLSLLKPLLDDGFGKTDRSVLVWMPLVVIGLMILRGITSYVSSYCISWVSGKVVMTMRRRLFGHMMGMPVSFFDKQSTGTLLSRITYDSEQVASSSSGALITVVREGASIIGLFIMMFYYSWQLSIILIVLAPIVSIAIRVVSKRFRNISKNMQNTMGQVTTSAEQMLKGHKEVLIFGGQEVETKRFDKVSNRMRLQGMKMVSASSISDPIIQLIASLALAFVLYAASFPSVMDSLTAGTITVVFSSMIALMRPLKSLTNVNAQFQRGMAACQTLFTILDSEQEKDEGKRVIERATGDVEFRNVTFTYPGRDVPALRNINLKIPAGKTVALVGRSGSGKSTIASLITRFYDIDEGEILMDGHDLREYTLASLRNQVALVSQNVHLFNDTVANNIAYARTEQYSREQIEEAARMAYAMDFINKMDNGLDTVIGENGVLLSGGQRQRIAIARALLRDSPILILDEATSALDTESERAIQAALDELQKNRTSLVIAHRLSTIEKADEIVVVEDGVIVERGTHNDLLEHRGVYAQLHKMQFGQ", "assay": "cell-based or functional assay"}, "[11]": {"conditions": "IC50 for inhibition of ATPase activity of MsbA, experiment of FIG. 3F / b233"}},
  "note": "Bridge positions count the residues as written; N and C are the ends. Square brackets hold non-standard residues; d marks the D form. Peptide text beside a SMILES is read from it. Bip = N[C@@H](Cc1ccc(-c2ccccc2)cc1)C(=O)O; NMeF = CN[C@@H](Cc1ccccc1)C(=O)O; NMeA = CN[C@@H](C)C(=O)O; Sar = CNCC(=O)O",
  "data": [
    {"molecule": "CC(C)C[C@@H]1NC(=O)[C@H](Cc2c[nH]c3ccccc23)NC(=O)[C@H](Cc2c[nH]c3ccccc23)NC(=O)[C@H](Cc2ccccc2)NC(=O)CSC[C@@H](C(N)=O)NC(=O)[C@H](C(C)C)NC(=O)[C@H](Cc2ccccc2)N(C)C(=O)[C@H](Cc2c[nH]c3ccccc23)NC(=O)[C@H](Cc2c[nH]c3ccccc23)NC(=O)[C@H](CC(=O)O)NC(=O)CN(C)C(=O)[C@H](CC(=O)O)NC(=O)[C@H](CO)NC(=O)[C@H](Cc2c[nH]c3ccccc23)NC1=O", "note": "[Compound G1119] ({CH2CO}-FWWLWSD[Sar]DWW[NMeF]VC-NH2; thioether N-14)", "values": [
      {"measurement": "IC50", "setting": "E. coli MsbA (EcMsbA); [11]", "value": 5, "unit": "nM"}
    ]},
    {"molecule": "CC1CCN(CC(=O)Nc2ccc(C#N)nc2C(=O)c2ncccc2F)CC1", "note": "[Compound G758, N-(6-cyano-2-(3-fluoropicolinoyl)pyridin-3-yl)-2-(4-methylpiperidin-1-yl)acetamide, reference compound]", "values": [
      {"measurement": "sensitivity of MsbA-chim5 to previously identified small-molecule inhibitors", "setting": "[1]", "value": "displayed sensitivity"}
    ]},
    {"molecule": "CC(C)C[C@@H]1NC(=O)CNC(=O)[C@H](Cc2c[nH]c3ccccc23)NC(=O)[C@H](C)N(C)C(=O)[C@H](Cc2c[nH]c3ccccc23)NC(=O)[C@H](CC(C)C)NC(=O)[C@H](Cc2ccc(O)cc2)NC(=O)[C@H](CCCNC(=N)N)NC(=O)[C@H](Cc2ccccc2)NC(=O)CSC[C@@H](C(N)=O)NC(=O)[C@H](CC(N)=O)NC(=O)[C@H](CC(=O)O)NC(=O)[C@H](Cc2c[nH]c3ccccc23)NC(=O)[C@H](C(C)C)NC1=O", "note": "[Compound G1122] ({CH2CO}-FRYLW[NMeA]WGLVWDNC-NH2; thioether N-14)", "values": [
      {"measurement": "IC50", "setting": "E. coli MsbA (EcMsbA); [11]", "value": 2, "unit": "nM"}
    ]},
    {"molecule": "CC(C)[C@@H]1NC(=O)[C@H](CCCNC(=N)N)NC(=O)[C@H](Cc2ccccc2)N(C)C(=O)[C@H](Cc2ccc(-c3ccccc3)cc2)NC(=O)[C@H](Cc2ccc(O)cc2)NC(=O)[C@H](C(C)C)NC(=O)[C@H](Cc2ccccc2)NC(=O)CSC[C@@H](C(N)=O)NC1=O", "note": "[Compound G1365, ClAc-FVYBphMeFRVCNH2] ({CH2CO}-FVY[Bip][NMeF]RVC-NH2; thioether N-8)", "values": [
      {"measurement": "imp Strain MICs: imp, E.coli MsbA", "setting": "[2]", "value": 12.5, "unit": "µM"},
      {"measurement": "IC50", "setting": "[3]", "value": 7600, "unit": "nM"},
      {"measurement": "EC50", "setting": "[4]; dose response on imp MsbAWT, imp MsbA High and UPEC WT, b248: EC50 for wild-type E. coli cells, read-out: EC50, FIGS. 3G-L", "value": 20000, "unit": "nM"},
      {"measurement": "IC50", "setting": "[4]; over the course of 6 hours, read-out: IC50, inhibition of growth of WT E. coli cells with an intact outer membrane", "value": "~20000", "unit": "nM"},
      {"measurement": "IC50", "setting": "E. coli MsbA (EcMsbA); ATPase inhibitory activity on WT EcMsbA, IC50, purified WT EcMsbA, FIG. 3D", "value": 1300, "unit": "nM"},
      {"measurement": "IC50", "setting": "E. coli MsbA (EcMsbA); biochemical IC50, FIGS. 3G-L, 8-10 mer macrocycle series experiment", "value": 300, "unit": "nM"},
      {"measurement": "IC50", "setting": "[5]", "value": "> 5000", "unit": "nM"}
    ]},
    {"molecule": "B1", "values": [
      {"measurement": "IC50, ATPase activity", "setting": "[6]", "value": 3100, "unit": "nM"},
      {"measurement": "IC50, ATPase activity", "setting": "[7]", "value": 120, "unit": "nM"},
      {"measurement": "IC50, ATPase activity", "setting": "[8]", "value": 240, "unit": "nM"},
      {"measurement": "IC50, ATPase activity of purified MsbA-chim5", "setting": "[9]", "value": "> 5000", "unit": "nM"},
      {"measurement": "fold lower potency than on EcMsbA (ATPase)", "setting": "[9]", "value": "> 30", "unit": "fold"},
      {"measurement": "IC50, ATPase activity of purified EcMsbA", "setting": "[10]", "value": 110, "unit": "nM"},
      {"measurement": "IC50 for inhibition of ATPase activity of MsbA", "setting": "[10]", "value": 5, "unit": "nM"},
      {"measurement": "minimum inhibitory concentration (MIC), E. coli cells with the lptD(imp4213) allele", "setting": "[10]", "value": 210, "unit": "µg/mL"}
    ]}
  ]
}
